Measurements published in patent US20040214762A1, “Use of inhibitors of proline endopeptidase to modulate inositol (1,4,5) triphosphate concentration dependent on intracellular signal cascades” (priority 2001, published 2004).
Blank lines part the entries; values can stand above or below the compound they belong to.

Experiments:
[1] = test system: IP3 concentration in U343 cells; assay: IP3 concentration in U343 cells after stimulation by substance P; type: cell-based, human; settings: for difference in IP3 concentration by inhibition: 5 μM inhibitor 12 hours
Description: To characterize the intracellular function of PEP, the IP3 concentration in the antisense cell lines Was measured. Cells were grown in 25 cm^2 culture flasks to nearly 100% confluence. IP3 concentration was determined by an isotope dilution method (Amersham Phamacia Biotech) using 0.5×10^6 cells per measurement. […] All measurements were done in quadruplicate. The calculation of IP3 concentration and the statistical analysis (t-test) were performed using Prism 3.0 (Graph Pad Software).
Wild-type and PEP antisense U343 cell lines were cultured in duplicate in 21 cm^2 culture dishes (Greiner) until confluence. Prior to stimulation the cells were washed twice in PBS and preincubated for 10 h in Optimem1 medium containing 1.6 μg/ml leupeptin (Sigma), 0.86 μg/ml chymostatin (Sigma), and 40 μg/ml bacitracin (Sigma) at 37° C. and 5% CO2. Substance P (Bachem) was added to obtain a final concentration of 1×10^−6 M and the incubation was stopped at the indicated time by rapidly aspirating the medium and adding of 0.4 ml ice cold trichloric acid. Preparation of samples and measurement of IP3 concentration were performed as described above.

PEP [2] = target: T1, PEP (Homo sapiens, UniProt P48147); assay: Degradation of substance P in serum free medium of U343 cells (MALDI-TOF MS); type: in vitro ADME; parameters: endogenous in cells; host or cells: U343 human astro glioma cells (wild type); settings: serum free Optimem1 medium of U343 cells, 10 min; data not shown
T1 sequence (P48147 1-710): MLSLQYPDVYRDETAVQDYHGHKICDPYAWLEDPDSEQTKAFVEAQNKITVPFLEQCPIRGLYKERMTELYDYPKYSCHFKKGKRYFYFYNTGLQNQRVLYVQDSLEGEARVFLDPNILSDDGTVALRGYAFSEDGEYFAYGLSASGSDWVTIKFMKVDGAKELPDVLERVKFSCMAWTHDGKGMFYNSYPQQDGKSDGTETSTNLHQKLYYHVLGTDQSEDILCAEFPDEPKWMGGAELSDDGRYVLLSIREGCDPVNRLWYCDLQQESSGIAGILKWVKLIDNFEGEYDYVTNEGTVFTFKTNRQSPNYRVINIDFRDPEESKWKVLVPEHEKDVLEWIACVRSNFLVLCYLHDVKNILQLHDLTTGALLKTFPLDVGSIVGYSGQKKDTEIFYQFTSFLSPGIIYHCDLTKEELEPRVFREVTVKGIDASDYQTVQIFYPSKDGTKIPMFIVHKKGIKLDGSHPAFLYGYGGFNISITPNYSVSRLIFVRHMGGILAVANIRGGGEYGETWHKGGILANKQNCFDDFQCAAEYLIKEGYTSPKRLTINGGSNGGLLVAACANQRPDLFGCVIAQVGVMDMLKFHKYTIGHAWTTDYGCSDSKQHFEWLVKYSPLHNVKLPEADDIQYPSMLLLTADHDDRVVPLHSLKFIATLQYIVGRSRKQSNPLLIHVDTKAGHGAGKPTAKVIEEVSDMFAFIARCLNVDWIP
Description: Using RT-PCR, the occurrence of substance P specific neurokinin receptors (NK-R) in U343 cells was investigated. PCR products could be obtained for two receptors displaying an appropriate size (FIG. 5). […] Being aware that substance P is an excellent in vitro substrate for PEP, we investigated potential degradation of substance P during the incubation time in the serum free Optimem1 medium of U343 cells by MALDI-TOF MS analysis. […] This is in agreement with the fact that no PEP activity is measurable in the medium (FIG. 6).

[3] = target: T2, purified recombinant human prolyl endopeptidase (Homo sapiens, UniProt P48147); assay: Determination of IC50 with Z-Gly-Pro-AMC; type: biochemical; settings: Z-Gly-Pro-AMC 10 μM, 37° C., 60 min
T2 sequence (P48147 1-710): T1 sequence (P48147 1-710)
Description: 100 μl inhibitor stock solution were mixed with 100 μl buffer (EPES pH7.6) and 50 μl substrate (Z-Gly-Pro-AMC, final concentration 10 μM). Reaction was started by addition of 20 μl purified recombinant human prolyl endopeptidase. Fluorescence measurement was performed at 37° C. and λexiatation=380 nm, λemission=465 nm for 60 min using a plate reader (HTS7000plus, Applied Biosystems, Weiterstadt, Germany). The final inhibitor concentrations ranged between 1 pM and 10 μM. For calculation of the IC50 value Prism 3″ (Graphpad) was used. The IC50-value of Benzyl-N-[1-(cyclopentylcarbonyl)-2-methylbutyl]carbamate was calculated as of IC50=8,91*10^−7 M

PEP [4] = target: T1, PEP; assay: Ki against recombinant human PEP; type: biochemical; settings: data not shown
Description: (§1) Two different approaches were chosen to influence the intracellular activity of PEP in U343 cells. Fmoc-Ala-Pyrr-CN is a potent and specific inhibitor for PEP (9), with an observed Ki value of 70 pM against recombinant human PEP (data not shown). It has been shown that this inhibitor is able to penetrate the cell membrane and inhibit PEP intracellularly (10). […] This inhibition is observed for up to 12 hours without adding fresh inhibitor. In addition, a totally different approach of reducing PEP activity was employed by generating antisense cell lines displaying reduced expression of the target enzyme.

[5] = target: T3, intracellular PEP activity (Homo sapiens, UniProt P48147); assay: Inhibition of intracellular PEP activity in U343 cells (Z-Gly-Pro-NHMec); type: cell-based
T3 construct: endogenous in cells; host or cells: U343 human astro glioma cells (wild type)
T3 sequence (P48147 1-710): T1 sequence (P48147 1-710)
Description: as §1
For the determination of PEP activity, U343 wild-type and PEP antisense cells (1×10^7) were harvested by washing twice in phosphate buffered saline (GIBCO BRL) and resuspended in 200 μl assay buffer (50 mM HEPES pH 7.5; 200 mM NaCl; 1 mM EDTA; 1 mM DTT). […] The protein concentration in the supernatant was determined according to the method of Bradford (5). PEP activity was measured in assay buffer using the fluorogenic substrate Z-Gly-Pro-NHMec (10 μM) (Bachem) on a Kontron spectrofluorometer SFM 25 (excitation 380, emission 460) equipped with a four-cell changer and controlled by an IBM-compatible personal computer. The obtained data were analyzed with the software Flucol (6).

[6] = test system: IP3 concentration in U343 cells; assay: IP3 concentration in U343 cells treated with PEP inhibitor (isotope dilution method); type: cell-based, human
Description: To characterize the intracellular function of PEP, the IP3 concentration in the antisense cell lines Was measured. Cells were grown in 25 cm^2 culture flasks to nearly 100% confluence. IP3 concentration was determined by an isotope dilution method (Amersham Phamacia Biotech) using 0.5×10^6 cells per measurement. To inhibit intracellular PEP, the cells were washed twice with PBS and incubated for 4 hours in Optimem 1 medium (GIBCO BRL) supplemented with 5 μM PEP-inhibitor Fmoc-alanyl-pyrroline-2-nitrile (Fmoc-Ala-Pyrr-CN). All measurements were done in quadruplicate. The calculation of IP3 concentration and the statistical analysis (t-test) were performed using Prism 3.0 (Graph Pad Software).
To use an alternative approach suppressing PEP activity in U343 cells, the cells were incubated for 3 hours in presence of the specific inhibitor Fmoc-Ala-Pyrr-CN (5 μM). The influence of DMSO, necessary for dissolving the inhibitor, was excluded by adding the same amount (0.05%) of DMSO to the media of control cells. […] However, the observed changes in IP3 concentration were only 0.16 pmol/10^6 cells. This is much lower than the observed change on IP3 concentration in cell line as-11 still having 30% remaining PEP activity, and calls into question the correlation between PEP activity and IP3 concentration. […] Moreover, the lower concentration of IP3 measured after 24 hours reflects the slight recovery of PEP activity at that time point. The total amount of IP3 after 12 hours (1.69±0.1) pmol/10^6 cells; n=4) is higher than the concentration measured in cell line as-11 (0.9±0.07 pmol/10^6 cells; n=4), displaying 30% remaining enzyme activity.

Compound: substance P: neuropeptide (Bachem), peptide hormone used to stimulate U343 cells
time of maximum IP3 concentration after stimulation ([1]; U343 wild-type untreated or inhibitor treated and as-2 cells, 1 μM substance P): 5 s
rise of IP3 concentration by substance P stimulation ([1]; wild-type U343 cells, 1 μM substance P, 5 sec): about 14 fold
IP3 concentration after substance P stimulation ([1]; wild-type U343 cells, 1 μM substance P, 5 sec, n=4): 5.4±0.49 pmol/10^6 cells
PEP specific degradation (PEP [2]): no PEP specific degradation was observed

IC50 [3]: 891 nM
Compound: CCC(C)C(NC(=O)OCc1ccccc1)C(=O)C1CCCC1 (stereo not shown) [Benzyl-N-[1-(cyclopentylcarbonyl)-2-methylbutyl]carbamate]

Ki (PEP [4]): 0.07 nM
duration of inhibition without adding fresh inhibitor ([5]; 5 μM): up to 12 hours
inhibition of intracellular PEP activity ([5]; 5 μM in medium): total inhibition
Compound: Fmoc-alanyl-pyrroline-2-nitrile [Fmoc-Ala-Pyrr-CN]
change in IP3 concentration ([6]; 5 μM, 3 hours incubation): 0.16 pmol/10^6 cells
total amount of IP3 ([6]; 5 μM, after 12 hours total inhibition, n=4): 1.69±0.1 pmol/10^6 cells
time to maximum IP3 concentration ([6]; single treatment 5 μM): 12 h
difference in IP3 concentration by inhibition ([1]; U343 cells stimulated with 1 μM substance P 5 sec): 7.9 pmol/10^6 cells
kinetic profile of IP3 stimulation by substance P, inhibitor treated vs control cells ([1]; U343 wild-type cells, 5 μM for 12 hours, 1 μM substance P): slight increased, but similar pattern
proportional difference in IP3 concentration by inhibition ([1]; non stimulated U343 cells): 5.5 fold
difference in IP3 concentration by inhibition ([1]; non stimulated U343 cells): 1.7 pmol/10^6 cells
proportional difference in IP3 concentration by inhibition ([1]; substance P stimulated U343 cells): 1.7 fold
